Data as given in patent US20230413822A1, “ORAL CANINE FEED AND METHODS FOR C[…] INFESTATIONS IN A CANINE” (In the Bowl Animal Health, Inc., priority 2021, published 2023).

Tests used:
[1] = Plasma concentration of mivorilaner in dogs fed medicated daily feed (Example 6); type: in vivo; set-up: unit not given here; conditions: Group 4-318 mg/kg feed (anticipated 3 mg/kg daily), Time 336 hr
From the text: Methods: A pool of dogs are to be preliminarily infested with ˜50 unfed adult R. sanguineus ticks in order to produce dogs that can suitably sustain a reliable infestation rate, defined as approximately 25% of attached ticks being live at the end of a 72-hour period. The 24 dogs with the highest live attached tick counts are to be selected for inclusion in the study. The 18 dogs with the highest live attached tick counts are to be randomly assigned to one of a control group and 2 treatment groups. The 6 dogs with the next highest live attached tick counts are to be assigned to a third treatment group.
The dogs are to be housed individually during the study period and are to have ad libitum access to water.
Each dog in a treatment group (test groups 2-4) is to receive a medicated daily feed from study days 0-49. The medicated daily feed is to be offered to the dogs for 1 hour on each of days 0-49 according to test groups listed in TABLE 7.
Sample results of the average plasma concentration of isoxazoline in a canine's blood at different dosage levels are shown in TABLE 8 and FIG. 9 for mivorilaner.

[2] = Plasma concentration of mivorilaner in dogs at various daily oral doses (Example 2); type: in vivo; conditions: average plasma
From the text: Methods: A pool of 46 dogs are to be preliminarily infested with ˜50 unfed adult R. sanguineus ticks in order to produce dogs that can suitably sustain a reliable infestation rate, defined as approximately 25% of attached ticks being live at the end of a 48-hour period. The 40 dogs with the highest live attached tick counts are to be selected for inclusion in the study. The dogs are to be randomly assigned to one of a control group and 4 treatment groups.
The dogs are to be housed individually during the study period and are to be fed a commercial dry dog food ration with ad libitum access to water.
Each dog in a treatment group (test groups 2-5) is to receive by mouth a liquid formulation of isoxazoline.
Dogs in the control group are not to receive isoxazoline or any other tick control treatment. Each dog in the treatment group is to be offered its daily ration (dry food) and the individual doses of liquid formulation are to be administered after the individual dog has eaten at least 25% of its total daily ration. After receiving the dose of isoxazoline, the dogs are to be allowed to continue eating. Each dog in treatment groups 3-5 and the control group is to be experimentally infested with 50 adult ticks on test days −2, 5, 12, 19, 28, 35 and 42. Dogs in group 2 are to be infested with 50 adult ticks on test days 19, 28 and 35. Comb counts for live adult ticks are to be conducted on days 2, 7, 14, 21, 30, 37 and 44.
Sample results of the average plasma concentration of isoxazoline in a canine's blood at different dosage levels of mivorilaner are shown in TABLE 3 and FIG. 4.

With `O=C(CNC(=O)c1sc(C2=NO[C@@](c3cc(Cl)c(F)c(Cl)c3)(C(F)(F)F)C2)c2c1CCC2)NCC(F)F` [Mivorilaner, 3-[(5S)-5-(3,5-dichloro-4-fluorophenyl)-5-(trifluoromethyl)-4,5-dihydroisoxazol-3-yl]-N-[2-[(2,2-difluoroethyl)amino]-2-oxoethyl]-5,6-dihydro-4H-cyclopenta[c]thiophene-1-carboxamide] the “average plasma concentration of isoxazoline in a canine's blood” value [1] was 11600.00, the “Mivorilaner Concentration” value ([2]; Group 2 (0.125 mg/kg/day) oral fed, 72 hours after initial dose) was 135.83 ng/mL and the “Mivorilaner Concentration” value ([2]; Group 2 (0.125 mg/kg/day) oral fed, 120 hours after initial dose) was 212.63 ng/mL. The “Mivorilaner Concentration” value ([2]; Group 2 (0.125 mg/kg/day) oral fed, 168 hours after initial dose) was 243.63 ng/mL, the “Mivorilaner Concentration” value ([2]; Group 2 (0.125 mg/kg/day) oral fed, 336 hours after initial dose) was 383.75 ng/mL and the “Mivorilaner Concentration” value ([2]; Group 2 (0.125 mg/kg/day) oral fed, 504 hours after initial dose) was 404.13 ng/mL. The “Mivorilaner Concentration” value ([2]; Group 2 (0.125 mg/kg/day) oral fed, 720 hours after initial dose) was 419.50 ng/mL, the “Mivorilaner Concentration” value ([2]; Group 2 (0.125 mg/kg/day) oral fed, 888 hours after initial dose) was 447.50 ng/mL and the “Mivorilaner Concentration” value ([2]; Group 2 (0.125 mg/kg/day) oral fed, 1056 hours after initial dose) was 428.38 ng/mL. The “Mivorilaner Concentration” value ([2]; Group 2 (0.125 mg/kg/day) oral fed, 1224 hours after initial dose) was 485.50 ng/mL, the “Mivorilaner Concentration” value ([2]; Group 2 (0.125 mg/kg/day) oral fed, 1440 hours after initial dose) was 897.50 ng/mL and the “Mivorilaner Concentration” value ([2]; Group 3 (0.25 mg/kg/day) oral fed, 72 hours after initial dose) was 283.13 ng/mL. The “Mivorilaner Concentration” value ([2]; Group 3 (0.25 mg/kg/day) oral fed, 120 hours after initial dose) was 450.00 ng/mL, the “Mivorilaner Concentration” value ([2]; Group 3 (0.25 mg/kg/day) oral fed, 168 hours after initial dose) was 579.13 ng/mL and the “Mivorilaner Concentration” value ([2]; Group 3 (0.25 mg/kg/day) oral fed, 336 hours after initial dose) was 883.38 ng/mL. The “Mivorilaner Concentration” value ([2]; Group 3 (0.25 mg/kg/day) oral fed, 504 hours after initial dose) was 877.75 ng/mL, the “Mivorilaner Concentration” value ([2]; Group 3 (0.25 mg/kg/day) oral fed, 720 hours after initial dose) was 1015.63 ng/mL and the “Mivorilaner Concentration” value ([2]; Group 3 (0.25 mg/kg/day) oral fed, 888 hours after initial dose) was 1003.88 ng/mL. For the same molecule, the “Mivorilaner Concentration” value ([2]; Group 3 (0.25 mg/kg/day) oral fed, 1056 hours after initial dose) was 945.13 ng/mL, the “Mivorilaner Concentration” value ([2]; Group 3 (0.25 mg/kg/day) oral fed, 1224 hours after initial dose) was 1040.88 ng/mL and the “Mivorilaner Concentration” value ([2]; Group 3 (0.25 mg/kg/day) oral fed, 1440 hours after initial dose) was 999.13 ng/mL. The “Mivorilaner Concentration” value ([2]; Group 4 (0.5 mg/kg/day) oral fed, 72 hours after initial dose) was 474.25 ng/mL, the “Mivorilaner Concentration” value ([2]; Group 4 (0.5 mg/kg/day) oral fed, 120 hours after initial dose) was 763.13 ng/mL and the “Mivorilaner Concentration” value ([2]; Group 4 (0.5 mg/kg/day) oral fed, 168 hours after initial dose) was 888.00 ng/mL. For the same molecule, the “Mivorilaner Concentration” value ([2]; Group 4 (0.5 mg/kg/day) oral fed, 336 hours after initial dose) was 1457.88 ng/mL, the “Mivorilaner Concentration” value ([2]; Group 4 (0.5 mg/kg/day) oral fed, 504 hours after initial dose) was 1633.25 ng/mL and the “Mivorilaner Concentration” value ([2]; Group 4 (0.5 mg/kg/day) oral fed, 720 hours after initial dose) was 1873.75 ng/mL. The “Mivorilaner Concentration” value ([2]; Group 4 (0.5 mg/kg/day) oral fed, 888 hours after initial dose) was 1986.25 ng/mL, the “Mivorilaner Concentration” value ([2]; Group 4 (0.5 mg/kg/day) oral fed, 1056 hours after initial dose) was 2012.50 ng/mL and the “Mivorilaner Concentration” value ([2]; Group 4 (0.5 mg/kg/day) oral fed, 1224 hours after initial dose) was 2318.75 ng/mL. For the same molecule, the “Mivorilaner Concentration” value ([2]; Group 4 (0.5 mg/kg/day) oral fed, 1440 hours after initial dose) was 2298.75 ng/mL, the “Mivorilaner Concentration” value ([2]; Group 5 (1.0 mg/kg/day) oral fed, 72 hours after initial dose) was 951.25 ng/mL and the “Mivorilaner Concentration” value ([2]; Group 5 (1.0 mg/kg/day) oral fed, 120 hours after initial dose) was 1510.00 ng/mL. The “Mivorilaner Concentration” value ([2]; Group 5 (1.0 mg/kg/day) oral fed, 168 hours after initial dose) was 1793.75 ng/mL, the “Mivorilaner Concentration” value ([2]; Group 5 (1.0 mg/kg/day) oral fed, 336 hours after initial dose) was 2691.25 ng/mL and the “Mivorilaner Concentration” value ([2]; Group 5 (1.0 mg/kg/day) oral fed, 504 hours after initial dose) was 3016.25 ng/mL. The “Mivorilaner Concentration” value ([2]; Group 5 (1.0 mg/kg/day) oral fed, 720 hours after initial dose) was 3756.25 ng/mL, the “Mivorilaner Concentration” value ([2]; Group 5 (1.0 mg/kg/day) oral fed, 888 hours after initial dose) was 3861.25 ng/mL and the “Mivorilaner Concentration” value ([2]; Group 5 (1.0 mg/kg/day) oral fed, 1056 hours after initial dose) was 4263.75 ng/mL. The “Mivorilaner Concentration” value ([2]; Group 5 (1.0 mg/kg/day) oral fed, 1224 hours after initial dose) was 4838.75 ng/mL and the “Mivorilaner Concentration” value ([2]; Group 5 (1.0 mg/kg/day) oral fed, 1440 hours after initial dose) was 4142.50 ng/mL.
